Several values for one entry are separate records, joined by “and”; a condition that tells them apart may be missing. Equal entries are not always repeated. Inconclusive results and toxic doses are left out.
System: L1210 leukemia ip in BDF1 mice, survival T/C
Test: NCI In Vivo Anticancer Drug Screen. Data for tumor model L1210 Leukemia (intraperitoneal) in B6D2F1 (BDF1) mice
Details: endpoint: mean survival time, higher = longer survival
Outline: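 Antitumor effect is assessed in tumor-bearing animals. Survival in the compound arm is compared with a vehicle-dosed control arm and expressed as their quotient.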

N=[N+]=CC(=O)CCC(NC(=O)C(CCC(=O)C=[N+]=N)NC(=O)CCC(N)C(=O)O)C(=O)O (stereo unspecified)
T/C (dose: 0.01 mg/kg/injection, schedule: Q01DX009 (ip), vehicle: water): 114 % of control
T/C (dose: 0.02 mg/kg/injection, schedule: Q01DX009 (ip), vehicle: other): 110 % of control
T/C (dose: 0.02 mg/kg/injection, schedule: Q01DX015 (ip), vehicle: water): 93 % of control
T/C (dose: 0.05 mg/kg/injection, schedule: Q01DX009 (ip), vehicle: other): 102 % of control and 115 % of control
T/C (dose: 0.05 mg/kg/injection, schedule: Q01DX015 (ip), vehicle: water): 102 % of control
T/C (dose: 0.05 mg/kg/injection, schedule: Q01DX017 (ip), vehicle: saline): 98 % of control and 106 % of control
T/C (dose: 0.05 mg/kg/injection, schedule: Q02DX009 (ip), vehicle: saline): 98 % of control
T/C (dose: 0.05 mg/kg/injection, schedule: Q03HX024 (ip), vehicle: water): 93 % of control
T/C (dose: 0.07 mg/kg/injection, schedule: Q01DX009 (ip), vehicle: water): 156 % of control
T/C (dose: 0.1 mg/kg/injection, schedule: Q01DX009 (ip), vehicle: other): 117 % of control
T/C (dose: 0.1 mg/kg/injection, schedule: Q01DX015 (ip), vehicle: water): 108 % of control
T/C (dose: 0.1 mg/kg/injection, schedule: Q01DX017 (ip), vehicle: saline): 123 % of control
T/C (dose: 0.1 mg/kg/injection, schedule: Q02DX009 (ip), vehicle: saline): 116 % of control
T/C (dose: 0.1 mg/kg/injection, schedule: Q04DX005 (ip), vehicle: saline): 102 % of control
T/C (dose: 0.2 mg/kg/injection, schedule: Q01DX009 (ip), vehicle: other): 107 % of control
T/C (dose: 0.2 mg/kg/injection, schedule: Q01DX017 (ip), vehicle: saline): 158 % of control
T/C (dose: 0.2 mg/kg/injection, schedule: Q02DX009 (ip), vehicle: saline): 123 % of control
T/C (dose: 0.2 mg/kg/injection, schedule: Q04DX005 (ip), vehicle: saline): 104 % of control
T/C (dose: 0.2 mg/kg/injection, schedule: Q08DX003 (ip), vehicle: saline): 112 % of control
T/C (dose: 0.4 mg/kg/injection, schedule: Q01DX015 (ip), vehicle: other): 117 % of control
T/C (dose: 0.4 mg/kg/injection, schedule: Q01DX015 (ip), vehicle: water): 153 % of control
T/C (dose: 0.4 mg/kg/injection, schedule: Q01DX017 (ip), vehicle: saline): 110 % of control and 123 % of control
T/C (dose: 0.4 mg/kg/injection, schedule: Q04DX005 (ip), vehicle: saline): 121 % of control
T/C (dose: 0.4 mg/kg/injection, schedule: Q08DX003 (ip), vehicle: saline): 107 % of control
T/C (dose: 0.6 mg/kg/injection, schedule: Q01DX015 (ip), vehicle: water): 183 % of control
T/C (dose: 0.8 mg/kg/injection, schedule: Q04DX005 (ip), vehicle: saline): 118 % of control
T/C (dose: 0.8 mg/kg/injection, schedule: Q08DX003 (ip), vehicle: saline): 109 % of control
T/C (dose: 1.0 mg/kg/injection, schedule: Q01DX009 (oral), vehicle: water): 96 % of control
T/C (dose: 1.0 mg/kg/injection, schedule: Q02DX005 (ip), vehicle: other): 160 % of control
T/C (dose: 1.0 mg/kg/injection, schedule: Q02DX005 (oral), vehicle: other): 163 % of control
T/C (dose: 1.25 mg/kg/injection, schedule: Q02DX008 (ip), vehicle: other): 189 % of control
T/C (dose: 1.25 mg/kg/injection, schedule: Q02DX008 (ip), vehicle: water): 166 % of control
T/C (dose: 1.25 mg/kg/injection, schedule: Q02DX008 (oral), vehicle: water): 156 % of control
T/C (dose: 1.6 mg/kg/injection, schedule: Q08DX003 (ip), vehicle: saline): 110 % of control
T/C (dose: 2.0 mg/kg/injection, schedule: Q02DX005 (oral), vehicle: other): 186 % of control
T/C (dose: 2.5 mg/kg/injection, schedule: Q02DX008 (oral), vehicle: water): 154 % of control
T/C (dose: 4.0 mg/kg/injection, schedule: Q02DX005 (ip), vehicle: other): 176 % of control
T/C (dose: 4.0 mg/kg/injection, schedule: Q02DX005 (oral), vehicle: other): 195 % of control
T/C (dose: 5.0 mg/kg/injection, schedule: Q02DX008 (ip), vehicle: other): 206 % of control
T/C (dose: 5.0 mg/kg/injection, schedule: Q04DX003 (ip), vehicle: other): 155 % of control
T/C (dose: 5.0 mg/kg/injection, schedule: Q04DX003 (ip), vehicle: saline): 170 % of control
T/C (dose: 6.0 mg/kg/injection, schedule: Q02DX005 (ip), vehicle: other): 197 % of control
T/C (dose: 6.0 mg/kg/injection, schedule: Q02DX005 (oral), vehicle: other): 204 % of control
T/C (dose: 6.2 mg/kg/injection, schedule: Q03HX024 (ip), vehicle: water): 193 % of control
T/C (dose: 8.0 mg/kg/injection, schedule: Q02DX005 (ip), vehicle: other): 183 % of control
T/C (dose: 8.0 mg/kg/injection, schedule: Q02DX005 (oral), vehicle: other): 200 % of control
T/C (dose: 10.0 mg/kg/injection, schedule: Q02DX008 (ip), vehicle: other): 117 % of control
T/C (dose: 10.0 mg/kg/injection, schedule: Q02DX008 (oral), vehicle: other): 166 % of control
T/C (dose: 10.0 mg/kg/injection, schedule: Q04DX003 (ip), vehicle: other): 155 % of control and 173 % of control
T/C (dose: 10.0 mg/kg/injection, schedule: Q04DX003 (ip), vehicle: saline): 192 % of control
T/C (dose: 10.0 mg/kg/injection, schedule: Q04DX003 (ip), vehicle: water): 167 % of control
T/C (dose: 12.5 mg/kg/injection, schedule: Q01DX001 (ip), vehicle: clinical formulation): 112 % of control
T/C (dose: 12.5 mg/kg/injection, schedule: Q01DX001 (ip), vehicle: saline): 119 % of control and 122 % of control
T/C (dose: 12.5 mg/kg/injection, schedule: Q03HX024 (ip), vehicle: water): 97 % of control
T/C (dose: 15.0 mg/kg/injection, schedule: Q02DX008 (oral), vehicle: other): 104 % of control
T/C (dose: 15.0 mg/kg/injection, schedule: Q## X003 (ip), vehicle: water): 185 % of control
T/C (dose: 20.0 mg/kg/injection, schedule: Q02DX008 (oral), vehicle: other): 116 % of control
T/C (dose: 20.0 mg/kg/injection, schedule: Q04DX003 (ip), vehicle: other): 166 % of control
T/C (dose: 20.0 mg/kg/injection, schedule: Q04DX003 (ip), vehicle: saline): 188 % of control
T/C (dose: 20.0 mg/kg/injection, schedule: Q04DX003 (ip), vehicle: water): 167 % of control and 171 % of control
T/C (dose: 20.0 mg/kg/injection, schedule: Q## X006 (ip), vehicle: water): 156 % of control
T/C (dose: 25.0 mg/kg/injection, schedule: Q01DX001 (ip), vehicle: clinical formulation): 123 % of control
T/C (dose: 25.0 mg/kg/injection, schedule: Q07DX002 (ip), vehicle: water): 156 % of control and 167 % of control
T/C (dose: 30.0 mg/kg/injection, schedule: Q04DX003 (ip), vehicle: other): 202 % of control
T/C (dose: 30.0 mg/kg/injection, schedule: Q## X003 (ip), vehicle: water): 209 % of control
T/C (dose: 40.0 mg/kg/injection, schedule: Q04DX003 (ip), vehicle: saline): 170 % of control
T/C (dose: 40.0 mg/kg/injection, schedule: Q04DX003 (ip), vehicle: water): 200 % of control and 206 % of control
T/C (dose: 40.0 mg/kg/injection, schedule: Q## X003 (ip), vehicle: water): 194 % of control
T/C (dose: 40.0 mg/kg/injection, schedule: Q## X006 (ip), vehicle: water): 188 % of control
T/C (dose: 50.0 mg/kg/injection, schedule: Q01DX001 (ip), vehicle: saline): 150 % of control
T/C (dose: 50.0 mg/kg/injection, schedule: Q01DX001 (ip), vehicle: water): 111 % of control
T/C (dose: 50.0 mg/kg/injection, schedule: Q07DX002 (ip), vehicle: other): 158 % of control
T/C (dose: 50.0 mg/kg/injection, schedule: Q## X003 (ip), vehicle: water): 178 % of control
T/C (dose: 60.0 mg/kg/injection, schedule: Q04DX003 (ip), vehicle: water): 195 % of control
T/C (dose: 60.0 mg/kg/injection, schedule: Q## X003 (ip), vehicle: water): 185 % of control
T/C (dose: 60.0 mg/kg/injection, schedule: Q## X006 (ip), vehicle: water): 115 % of control
T/C (dose: 75.0 mg/kg/injection, schedule: Q07DX002 (ip), vehicle: water): 192 % of control
T/C (dose: 80.0 mg/kg/injection, schedule: Q04DX003 (ip), vehicle: saline): 100 % of control
T/C (dose: 80.0 mg/kg/injection, schedule: Q04DX003 (ip), vehicle: water): 159 % of control
T/C (dose: 80.0 mg/kg/injection, schedule: Q## X006 (ip), vehicle: water): 115 % of control
T/C (dose: 100.0 mg/kg/injection, schedule: Q01DX001 (ip), vehicle: clinical formulation): 153 % of control
T/C (dose: 100.0 mg/kg/injection, schedule: Q07DX002 (ip), vehicle: other): 171 % of control
T/C (dose: 100.0 mg/kg/injection, schedule: Q07DX002 (ip), vehicle: water): 194 % of control
T/C (dose: 150.0 mg/kg/injection, schedule: Q07DX002 (ip), vehicle: water): 194 % of control
T/C (dose: 200.0 mg/kg/injection, schedule: Q01DX001 (ip), vehicle: other): 158 % of control
T/C (dose: 200.0 mg/kg/injection, schedule: Q01DX001 (ip), vehicle: saline): 96 % of control
T/C (dose: 200.0 mg/kg/injection, schedule: Q01DX001 (ip), vehicle: water): 109 % of control
T/C (dose: 200.0 mg/kg/injection, schedule: Q01DX001 (oral), vehicle: other): 155 % of control
T/C (dose: 250.0 mg/kg/injection, schedule: Q01DX001 (ip), vehicle: water): 117 % of control
T/C (dose: 300.0 mg/kg/injection, schedule: Q01DX001 (ip), vehicle: other): 101 % of control
T/C (dose: 300.0 mg/kg/injection, schedule: Q01DX001 (ip), vehicle: water): 96 % of control and 106 % of control

— PubChem BioAssay AID248 (DTP/NCI, 2004)
